Assay results as given in US11999727B2 (Tango Therapeutics, Inc., priority 2020, dated 2024).

Key:
PRMT5 [1] = target: T1, PRMT5 (Homo sapiens, UniProt O14744); assay: PRMT5 biochemical IC50 assay with SAM as cofactor; conditions: PRMT5, SAM as cofactor; read-out: SAM IC50
T1 construct: purchased Viva (custom protein)

PRMT5 [2] = target: T1, PRMT5; assay: PRMT5 biochemical IC50 assay with no cofactor; conditions: PRMT5, no cofactor; read-out: No Cofactor/rel IC50
Source text: Table 1 indicates IC50 values (μM) against PRMT5 for exemplary compounds in the presence of SAM as cofactor, with no cofactor, and with MTA as cofactor, respectively (columns 4-6). […] Ki values can be calculated from the IC50 values as described in the Examples section. As detailed in the Examples section, for the assay performed in the presence of SAM, IC50=Ki×1.5 (Ki=IC50/1.5).

PRMT5 [3] = target: T1, PRMT5; assay: PRMT5 biochemical IC50 assay with MTA as cofactor; conditions: PRMT5, MTA as cofactor; read-out: MTA IC50
[4] = system: HAP1 MTAP-intact cell line; assay: SDMA in-cell western assay, HAP1 MTAP-intact; format: cell-based; conditions: Homo sapiens, HAP1, SDMA in-cell western, HAP1 MTAP-intact; read-out: MTAP HAP1 intact IC50
Outline: (§1)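 IC50 values come from SDMA signal quantified by in-cell western in two HAP1 lines, one with native MTAP levels and one lacking MTAP.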

[5] = system: HAP1 MTAP-deleted cell line; assay: SDMA in-cell western assay, HAP1 MTAP-deleted; format: cell-based; conditions: for IC50: Homo sapiens, HAP1, SDMA in-cell western, HAP1 MTAP-deleted; for MTAP intact/deleted ratio: IC50 ratio HAP1 MTAP-intact / HAP1 MTAP-deleted, SDMA in-cell western
Outline: as §1

[6] = system: HAP1 MTAP-deleted cell line; assay: Viability assay, MTAP-deleted cell line; format: cell-based; conditions: Homo sapiens, read-out: HAP1 MTAP deleted viability
Source text: Table 1 additionally indicates IC50 values in a viability assay for the MTAP-deleted cell line (column 10), indicating the effect of treatment with compound on cell survival.

[7] = read-out: HAP1 MTAP deleted IC50
[8] = HAP1, viability assay, MTAP-deleted cell line
[9] = read-out: HAP 1 MTAP deleted IC50
[10] = HAP1, viability IC50, MTAP-deleted cell line

T1 sequence (O14744 whole entry): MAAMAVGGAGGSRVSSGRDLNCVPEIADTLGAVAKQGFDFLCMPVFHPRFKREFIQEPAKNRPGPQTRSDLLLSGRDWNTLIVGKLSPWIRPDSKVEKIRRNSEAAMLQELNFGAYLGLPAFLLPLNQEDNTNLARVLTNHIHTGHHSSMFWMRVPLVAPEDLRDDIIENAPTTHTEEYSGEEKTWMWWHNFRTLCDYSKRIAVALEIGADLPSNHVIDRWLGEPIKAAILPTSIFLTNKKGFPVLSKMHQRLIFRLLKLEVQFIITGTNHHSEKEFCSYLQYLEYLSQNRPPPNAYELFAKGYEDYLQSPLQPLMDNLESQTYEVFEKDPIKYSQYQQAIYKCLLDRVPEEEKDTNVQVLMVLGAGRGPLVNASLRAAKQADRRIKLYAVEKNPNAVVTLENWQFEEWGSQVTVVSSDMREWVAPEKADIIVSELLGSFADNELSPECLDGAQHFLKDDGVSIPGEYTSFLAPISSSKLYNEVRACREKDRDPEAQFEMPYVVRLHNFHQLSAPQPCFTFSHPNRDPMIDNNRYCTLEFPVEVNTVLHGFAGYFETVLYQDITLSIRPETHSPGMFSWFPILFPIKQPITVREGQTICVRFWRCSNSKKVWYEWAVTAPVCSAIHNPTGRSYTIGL
T1 sequence (Q9BQA1 whole entry partner): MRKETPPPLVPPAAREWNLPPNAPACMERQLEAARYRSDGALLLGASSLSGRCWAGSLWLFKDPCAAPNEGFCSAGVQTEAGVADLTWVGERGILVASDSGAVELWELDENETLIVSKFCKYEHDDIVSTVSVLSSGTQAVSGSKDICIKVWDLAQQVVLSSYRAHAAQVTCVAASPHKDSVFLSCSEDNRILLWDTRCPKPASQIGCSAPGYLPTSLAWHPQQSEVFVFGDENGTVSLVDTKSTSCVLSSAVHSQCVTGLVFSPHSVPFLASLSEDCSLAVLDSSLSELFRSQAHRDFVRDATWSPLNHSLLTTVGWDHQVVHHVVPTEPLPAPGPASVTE

IC50 (PRMT5 [1]) [nM] | IC50 (PRMT5 [2]) [nM] | IC50 (PRMT5 [3]) [nM] | IC50 [4] [nM] | IC50 [5, 7] [nM] | IC50 [5, 9] [nM] | Structure (SMILES) | MTAP intact/deleted ratio [5] | IC50 [6, 8] [µM] | IC50 [6, 10] [µM]
< 50 | < 50 | < 50 | > 1000 | < 100 | – | COc1ncc(NC(=O)C(=O)N2C[C@@H](C)CC[C@@H]2c2cncs2)cc1C(N)=O (single isomer, unassigned) [Compound 516] | A (an IC50 ratio greater than or equal to 10 fold) | < 1 | –
50 to 500 | 50 to 500 | < 50 | > 1000 | < 100 | – | Cc1cc(NC(=O)C(=O)N2CCCC[C@H]2c2ccc3[nH]ncc3c2)cnc1N (single isomer, unassigned) [Compound 518] | A (an IC50 ratio greater than or equal to 10 fold) | < 1 | –
> 500 | > 500 | > 500 | > 1000 | > 1000 | – | Cc1cc([C@@H]2CC[C@@H](C)CN2C(=O)C(=O)Nc2cncc(C(N)=O)c2)ccn1 (single isomer, unassigned) [Compound 519] | C (an IC50 ratio of less than 3 fold) | > 10 | –
50 to 500 | 50 to 500 | 50 to 500 | > 1000 | 100 to 1000 | – | C[C@H]1CC[C@H]([C@@H]2CCC[C@@H](O)C2)N(C(=O)C(=O)Nc2cncc(C(N)=O)c2)C1 (single isomer, unassigned) [Compound 520] | A (an IC50 ratio greater than or equal to 10 fold) | > 10 | –
50 to 500 | 50 to 500 | < 50 | > 1000 | 100 to 1000 | – | Cc1cc(NC(=O)C(=O)N2C[C@H](C)CC[C@H]2c2ccc(NCC(F)(F)F)cc2)cnc1N (single isomer, unassigned) [Compound 522] | A (an IC50 ratio greater than or equal to 10 fold) | 1 to 10 | –
> 500 | > 500 | > 500 | > 1000 | > 1000 | – | CC(=O)Nc1ccc([C@H]2CC[C@H](C)CN2C(=O)C(=O)Nc2cnc(N)c(C)c2)cc1 (single isomer, unassigned) [Compound 523] | C (an IC50 ratio of less than 3 fold) | > 10 | –
50 to 500 | < 50 | < 50 | 100 to 1000 | < 100 | – | CC(=O)Nc1ccc([C@@H]2CC[C@@H](C)CN2C(=O)C(=O)Nc2cnc(N)c(C)c2)cc1 (single isomer, unassigned) [Compound 527] | A (an IC50 ratio greater than or equal to 10 fold) | < 1 | –
> 500 | > 500 | > 500 | > 1000 | – | > 1000 | Cc1cc(NC(=O)C(=O)N2C[C@@H](C)CC[C@@H]2c2ccc(NCC(F)(F)F)cc2)cnc1N (single isomer, unassigned) [Compound 528] | B (an IC50 ratio greater than or equal to 3 fold but lower than 10 fold) | – | 1 to 10
> 500 | > 500 | > 500 | > 1000 | – | > 1000 | C[C@H]1CC[C@H]([C@@H]2CCC[C@H](O)C2)N(C(=O)C(=O)Nc2cncc(C(N)=O)c2)C1 (single isomer, unassigned) [Compound 529] | C (an IC50 ratio of less than 3 fold) | – | > 10
> 500 | > 500 | > 500 | > 1000 | – | > 1000 | C[C@@H]1CC[C@@H]([C@H]2CCC[C@H](O)C2)N(C(=O)C(=O)Nc2cncc(C(N)=O)c2)C1 (single isomer, unassigned) [Compound 530] | C (an IC50 ratio of less than 3 fold) | – | > 10
50 to 500 | > 500 | 50 to 500 | > 1000 | – | > 1000 | C[C@@H]1CC[C@@H]([C@H]2CCC[C@@H](O)C2)N(C(=O)C(=O)Nc2cncc(C(N)=O)c2)C1 (single isomer, unassigned) [Compound 531] | B (an IC50 ratio greater than or equal to 3 fold but lower than 10 fold) | – | > 10
50 to 500 | < 50 | < 50 | > 1000 | – | < 100 | COc1cc([C@@H]2CC[C@@H](C)CN2C(=O)C(=O)Nc2cncc(C(N)=O)c2)ccn1 (single isomer, unassigned) [Compound 532] | A (an IC50 ratio greater than or equal to 10 fold) | – | < 1
> 500 | > 500 | > 500 | > 1000 | – | > 1000 | COc1cc([C@H]2CC[C@H](C)CN2C(=O)C(=O)Nc2cncc(C(N)=O)c2)ccn1 (single isomer, unassigned) [Compound 533] | C (an IC50 ratio of less than 3 fold) | – | > 10
50 to 500 | 50 to 500 | < 50 | > 1000 | – | 100 to 1000 | Cc1cc([C@H]2CC[C@H](C)CN2C(=O)C(=O)Nc2cncc(C(N)=O)c2)ccn1 (single isomer, unassigned) [Compound 534] | A (an IC50 ratio greater than or equal to 10 fold) | – | 1 to 10
> 500 | > 500 | > 500 | > 1000 | – | > 1000 | Cc1cc(NC(=O)C(=O)N2CCCC[C@@H]2c2ccc3[nH]ncc3c2)cnc1N (single isomer, unassigned) [Compound 535] | B (an IC50 ratio greater than or equal to 3 fold but lower than 10 fold) | – | > 10
> 500 | > 500 | > 500 | > 1000 | – | > 1000 | COc1ncc(NC(=O)C(=O)N2C[C@@H](C)CC[C@@H]2c2cnc3[nH]ncc3c2)cc1C(N)=O (single isomer, unassigned) [Compound 537] | C (an IC50 ratio of less than 3 fold) | – | > 10
> 500 | > 500 | > 500 | > 1000 | – | > 1000 | COc1cc([C@H]2CC[C@H](C)CN2C(=O)C(=O)Nc2cnc(N)c(C)c2)ccn1 (single isomer, unassigned) [Compound 538] | B (an IC50 ratio greater than or equal to 3 fold but lower than 10 fold) | – | > 10
50 to 500 | 50 to 500 | < 50 | > 1000 | – | < 100 | C[C@H]1CC[C@H](c2ccncc2)N(C(=O)C(=O)Nc2cncc(C(N)=O)c2)C1 (single isomer, unassigned) [Compound 539, 5-(2-(5-methyl-2-(pyridin-4-yl)piperidin-1-yl)-2-oxoacetamido)nicotinamide] | A (an IC50 ratio greater than or equal to 10 fold) | – | 1 to 10
> 500 | > 500 | > 500 | > 1000 | – | > 1000 | C[C@@H]1CC[C@@H](c2ccncc2)N(C(=O)C(=O)Nc2cncc(C(N)=O)c2)C1 (single isomer, unassigned) [Compound 544, 5-(2-(5-methyl-2-(pyridin-4-yl)piperidin-1-yl)-2-oxoacetamido)nicotinamide] | C (an IC50 ratio of less than 3 fold) | – | > 10
50 to 500 | < 50 | < 50 | 100 to 1000 | – | < 100 | COc1cc([C@@H]2CC[C@@H](C)CN2C(=O)C(=O)Nc2cnc(N)c(C)c2)ccn1 (single isomer, unassigned) [Compound 545] | B (an IC50 ratio greater than or equal to 3 fold but lower than 10 fold) | – | < 1
50 to 500 | 50 to 500 | < 50 | > 1000 | – | 100 to 1000 | COc1ncc(NC(=O)C(=O)N2C[C@H](C)CC[C@H]2c2cnc3[nH]ncc3c2)cc1C(N)=O (single isomer, unassigned) [Compound 546] | A (an IC50 ratio greater than or equal to 10 fold) | – | 1 to 10
50 to 500 | 50 to 500 | < 50 | > 1000 | – | < 100 | CC[C@H]1CC[C@H](c2ccccc2)N(C(=O)C(=O)Nc2cncc(C(N)=O)c2)C1 (single isomer, unassigned) [Compound 547] | A (an IC50 ratio greater than or equal to 10 fold) | – | 1 to 10
